Laboratory results from patent US8133884B2, “Compounds for the treatment of hepatitis C” (priority 2008, dated 2012).

Assays:
HCV NS5B = target: T1, HCV NS5B (Hepatitis C virus genotype 1b, UniProt Q9WMX2); test: Modified HCV NS5B RdRp enzyme assay (preincubation protocol); assay type: biochemical
T1 construct: The protein was expressed with an 18 amino acid C-terminal truncation to enhance the solubility; made in house; host or cells: E. coli BL21(DE3)
Protocol: The cDNA encoding the NS5B protein of HCV, genotype 1b, was cloned into the pET21a expression vector. The protein was expressed with an 18 amino acid C-terminal truncation to enhance the solubility. The E. coli competent cell line BL21(DE3) was used for expression of the protein. Cultures were grown at 37° C. for ˜4 hours until the cultures reached an optical density of 2.0 at 600 nm. The cultures were cooled to 20° C. and induced with 1 mM IPTG. Fresh ampicillin was added to a final concentration of 50 μg/ml and the cells were grown overnight at 20° C.
Cell pellets (3 L) were lysed for purification to yield 15-24 mgs of purified NS5B. The lysis buffer consisted of 20 mM Tris-HCl, pH 7.4, 500 mM NaCl, 0.5% triton X-100, 1 mM DTT, 1 mM EDTA, 20% glycerol, 0.5 mg/ml lysozyme, 10 mM MgCl2, 15 ug/ml deoxyribonuclease I, and Complete TM protease inhibitor tablets (Roche). After addition of the lysis buffer, frozen cell pellets were resuspended using a tissue homogenizer. To reduce the viscosity of the sample, aliquots of the lysate were sonicated on ice using a microtip attached to a Branson sonicator. The sonicated lysate was centrifuged at 100,000×g for 1 hr at 4° C. and filtered through a 0.2 μm filter unit (Corning).
The protein was purified using three sequential chromatography steps: Heparin sepharose CL-6B, polyU sepharose 4B, and […] SP sepharose (Pharmacia). The chromatography buffers were identical to the lysis buffer but contained no lysozyme, deoxyribonuclease I, MgCl2 or protease inhibitor and the NaCl concentration of the buffer was adjusted according to the requirements for charging the protein onto the column. Each column was eluted with a NaCl gradient which varied in length from 5-50 column volumes depending on the column type. After the final chromatography step, the resulting purity of the enzyme is >90% based on SDS-PAGE analysis. The enzyme was aliquoted and stored at −80° C.
HCV RdRp genotype 1b assays were run in a final volume of 60 μl in 96 well plates (Costar 3912). The assay buffer is composed of 20 mM Hepes, pH 7.5, 2.5 mM KCl, 2.5 mM MgCl2, 1 mM DTT, 1.6 U RNAse inhibitor (Promega N2515), 0.1 mg/ml BSA (Promega R3961), and 2% glycerol. All compounds were serially diluted (3-fold) in DMSO and diluted further in water such that the final concentration of DMSO in the assay was 2%. HCV RdRp genotype 1b enzyme was used at a final concentration of 28 nM. A polyA template was used at 6 nM, and a biotinylated oligo-dT12 primer was used at 180 nM final concentration. Template was obtained commercially (Amersham 27-4110). Biotinylated primer was prepared by Sigma Genosys. 3H-UTP was used at 0.6 μCi (0.29 μM total UTP). Reactions were initiated by the addition of enzyme, incubated at 30° C. for 60 min, and stopped by adding 25 μl of 50 mM EDTA containing SPA beads (4 μg/μl, Amersham RPNQ 0007). Plates were read on a Packard TOPCOUNT® NXT after >1 hr incubation at room temperature.
A modified enzyme assay was performed essentially as described for the standard enzyme assay except for the following: The biotinylated oligo dT12 primer was precaptured on streptavidin-coated SPA beads by mixing primer and beads in assay buffer and incubating at room temperature for one hour. Unbound primer was removed after centrifugation. The primer-bound beads were resuspended in 20 mM Hepes buffer, pH 7.5 and used in the assay at final concentrations of 20 nM primer and 0.67 μg/μl beads. Order of addition in the assay: enzyme (14 nM) was added to diluted compound followed by the addition of a mixture of template (0.2 nM), 3H-UTP (0.6 μCi, 0.29 μM), and primer-bound beads, to initiate the reaction; concentrations given are final. Reactions were allowed to proceed for 4 hours at 30° C.
IC50 values for compounds were determined using seven different [I]. IC50 values were calculated from the inhibition using the formula y=A+((B−A)/(1+((C/x)^D))).

HCV replicon = HCV replicon assay (FRET or luciferase reporter); assay type: cell-based; details: Hepatitis C virus, one of the methods described
Source text: To perform the HCV FRET screening assay, 96-well cell culture plates were used, The FRET peptide (Anaspec, Inc.) (Taliani et al., Anal. Biochem., 240:60-67 (1996)) contains a fluorescence donor, EDANS, near one end of the peptide and an acceptor, DABCYL, near the other end. The fluorescence of the peptide is quenched by […] resonance energy transfer (RET) between the donor and the acceptor, but as the NS3 protease cleaves the peptide the products are released from RET quenching and the fluorescence of the donor becomes apparent. The assay reagent was made as follows: 5× cell Luciferase cell culture lysis reagent from Promega (#E153A) diluted to 1× with dH2O, NaCl added to 150 mM final, the FRET peptide diluted to 20 μM final from a 2 mM stock.
To prepare plates, HCV replicon cells, with or without a Renilla luciferase reporter gene, were trypsinized and placed into each well of a 96-well plate with titrated test compounds added in columns 3 through 12; columns 1 and 2 contained a control compound (HCV protease inhibitor), and the bottom row contained cells without compound. The plates were then placed in a CO2 incubator at 37° C.
Subsequent to addition of the test compounds described above (FRET Assay Preparation), at various times the plate was removed and Alamar blue solution (Trek Diagnostics, #00-100) was added per well as a measure of cellular toxicity. After reading in a CYTOFLUOR® 4000 instrument (PE Biosystems), plates were rinsed with PBS and then used for FRET assay by the addition of 30 ul of the FRET peptide assay reagent described above (FRET Assay Preparation) per well. The plate was then placed into the CYTOFLUOR® 4000 instrument which had been set to 340 excite/490 emission, automatic mode for 20 cycles and the plate read in a kinetic mode. Typically, the signal to noise using an endpoint analysis after the reads was at least three-fold. Alternatively, after Alamar blue reading, plates were rinsed with PBS, 50 ul of DMEM (high glucose) without phenol red was added and plates were then used for luciferase assay using the Promega DUAL-GLO® Luciferase Assay System.
Compound analysis was determined by quantification of the relative HCV replicon inhibition and the relative cytotoxicity values. To calculate cytoxicity values, the average Alamar Blue fluorescence signals from the control wells were set as 100% non-toxic. The individual signals in each of the compound test wells were then divided by the average control signal and multiplied by 100% to determine […]. To calculate the HCV replicon inhibition values, an average background value was obtained from the two wells containing the highest amount of HCV protease inhibitor at the end of the assay period. These numbers were similar to those obtained from naïve Huh-7 cells.
The background numbers were then subtracted from the average signal obtained from the control wells and this number was used as 100% activity. The individual signals in each of the compound test wells were then divided by the averaged control values after background subtraction and multiplied by 100% to determine percent activity. EC50 values for a protease inhibitor titration were calculated as the concentration which caused a 50% reduction in FRET or luciferase activity. The two numbers generated for the compound plate, percent cytoxicity and percent activity were used to determine compounds of interest for further analysis.
The HCV replicon luciferase assay was developed to monitor the inhibitory effects of compounds described in the disclosure on HCV viral replication. Utilization of a replicon luciferase reporter assay was first described by Krieger et al (Krieger, N. et al., J. Virology, 75(10):4614-4624 (2001)). HUH-7 cells, constitutively expressing the HCV replicon, were grown in Dulbecco's Modified Eagle Media (DMEM) (Gibco-BRL) containing 10% Fetal calf serum (FCS) (Sigma) and 1 mg/ml G418 (Gibco-BRL). […]

T1 sequence (Q9WMX2 2420-2992): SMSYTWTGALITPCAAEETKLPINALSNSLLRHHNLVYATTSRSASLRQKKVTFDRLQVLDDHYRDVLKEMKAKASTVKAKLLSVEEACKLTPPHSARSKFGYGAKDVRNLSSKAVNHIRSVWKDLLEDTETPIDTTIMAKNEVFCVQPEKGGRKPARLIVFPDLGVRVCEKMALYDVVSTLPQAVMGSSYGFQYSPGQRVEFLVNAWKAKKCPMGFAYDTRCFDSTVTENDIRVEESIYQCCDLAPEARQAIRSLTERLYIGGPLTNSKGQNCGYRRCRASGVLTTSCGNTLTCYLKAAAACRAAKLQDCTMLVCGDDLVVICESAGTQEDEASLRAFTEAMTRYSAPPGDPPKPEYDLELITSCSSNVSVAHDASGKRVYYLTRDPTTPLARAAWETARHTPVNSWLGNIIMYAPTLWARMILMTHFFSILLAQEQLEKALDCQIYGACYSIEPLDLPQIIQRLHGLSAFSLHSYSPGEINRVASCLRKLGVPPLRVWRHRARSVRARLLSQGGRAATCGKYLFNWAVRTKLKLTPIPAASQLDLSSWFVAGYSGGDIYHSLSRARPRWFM

SMILES | IC50 (HCV NS5B; class symbol) [nM] | EC50 (HCV replicon; class symbol) [nM] | IC50 (HCV NS5B; exact value) [nM] | EC50 (HCV replicon; exact value) [nM]
COc1ccc2c(c1)C=C(c1c(C(=O)N3C[C@@H](C)N(C)[C@@H](C)C3)cnn1-c1ccncc1C)Cn1c-2c(C2CCCCC2)c2ccc(C(=O)NS(=O)(=O)C(C)C)cc21 | 1.7 to 500 | 1.7 to 500 |  | 
COc1ccc2c(c1)C=C(c1c(C(=O)N3CC(F)(F)C3)cnn1C1CCC1)Cn1c-2c(C2CCCCC2)c2ccc(C(=O)NS(=O)(=O)C(C)C)cc21 | 1.7 to 500 | 1.7 to 500 |  | 
COc1ccc2c(c1)C=C(c1c(C(=O)N3C4CCC3CC(C)(O)C4)cnn1-c1ccncc1C)Cn1c-2c(C2CCCCC2)c2ccc(C(=O)NS(=O)(=O)C(C)C)cc21 (stereo not shown) | 1.7 to 500 | 1.7 to 500 |  | 
COc1ccc2c(c1)C=C(c1c(C(=O)N3C[C@@H](C)O[C@@H](C)C3)cnn1C1CCCC1)Cn1c-2c(C2CCCCC2)c2ccc(C(=O)NS(=O)(=O)C(C)C)cc21 | 1.7 to 500 | 1.7 to 500 |  | 
COc1ccc2c(c1)C=C(c1c(C(=O)N3C4CCC3CN(C)C4)cnn1C1CCOCC1)Cn1c-2c(C2CCCCC2)c2ccc(C(=O)NS(=O)(=O)C(C)C)cc21 | 1.7 to 500 | 1.7 to 500 |  | 
COc1ccc2c(c1)C=C(c1c(C(=O)N3C4CCC3CN(C)C4)cnn1C1CCC1)Cn1c-2c(C2CCCCC2)c2ccc(C(=O)NS(=O)(=O)CC(C)C)cc21 | 1.7 to 500 | 1.7 to 500 | 3.3 | 8.1
COc1ccc2c(c1)C=C(c1c(C(=O)N3C[C@@H]4C[C@H]3CN4CC3CC3)c(C)nn1C1CCC1)Cn1c-2c(C2CCCCC2)c2ccc(C(=O)NS(=O)(=O)C(C)C)cc21 | 1.7 to 500 | 1.7 to 500 |  | 
COc1ccc2c(c1)C=C(c1c(C(=O)N3C4CCC3CN(C)C4)cnn1C1CCN(C)CC1)Cn1c-2c(C2CCCCC2)c2ccc(C(=O)NS(=O)(=O)C(C)C)cc21 | 1.7 to 500 | 1.7 to 500 |  | 
COc1ccc2c(c1)C=C(c1c(C(=O)N3CCOCC3)cnn1C1CCC1)Cn1c-2c(C2CCCCC2)c2ccc(C(=O)NS(=O)(=O)C(C)C)cc21 | 1.7 to 500 | 1.7 to 500 |  | 
COc1ccc2c(c1)C=C(c1c(C(=O)N3C[C@@H](C)O[C@@H](C)C3)cnn1C1CCC1)Cn1c-2c(C2CCCCC2)c2ccc(C(=O)NS(=O)(=O)C(C)C)cc21 | 1.7 to 500 | 1.7 to 500 |  | 
COc1ccc2c(c1)C=C(c1c(C(=O)N3C[C@@H](C)O[C@@H](C)C3)cnn1-c1ccccn1)Cn1c-2c(C2CCCCC2)c2ccc(C(=O)NS(=O)(=O)C(C)C)cc21 | 1.7 to 500 | 1.7 to 500 |  | 
COc1ccc2c(c1)C=C(c1c(C(=O)N3C[C@@H](C)O[C@@H](C)C3)cnn1-c1ncccn1)Cn1c-2c(C2CCCCC2)c2ccc(C(=O)NS(=O)(=O)C(C)C)cc21 | 1.7 to 500 | 1.7 to 500 |  | 
COc1ccc2c(c1)C=C(c1c(C(=O)N3CCCOCC3)cnn1C1CCC1)Cn1c-2c(C2CCCCC2)c2ccc(C(=O)NS(=O)(=O)C(C)C)cc21 | 1.7 to 500 | 1.7 to 500 | 5.4 | 7.6
CCN1C[C@@H]2C[C@H]1CN2C(=O)c1c(C)nn(C2CCC2)c1C1=Cc2cc(OC)ccc2-c2c(C3CCCCC3)c3ccc(C(=O)NS(=O)(=O)N(C)C)cc3n2C1 | 1.7 to 500 | 1.7 to 500 | 3.4 | 10
COc1ccc2c(c1)C=C(c1c(C(=O)N3C[C@@H](C)N(C)[C@@H](C)C3)c(C)nn1C1CCC1)Cn1c-2c(C2CCCCC2)c2ccc(C(=O)NS(=O)(=O)C(C)C)cc21 | 1.7 to 500 | 1.7 to 500 |  | 
CCN1CC2CC1CN2C(=O)c1c(C2=Cc3cc(OC)ccc3-c3c(C4CCCCC4)c4ccc(C(=O)NS(=O)(=O)C(C)C)cc4n3C2)ncn1C1CCC1 (stereo not shown) | 1.7 to 500 | 1.7 to 500 |  | 
COC[C@H]1CN(C(=O)c2cnn(C3CCC3)c2C2=Cc3cc(OC)ccc3-c3c(C4CCCCC4)c4ccc(C(=O)NS(=O)(=O)C(C)C)cc4n3C2)CCO1 | < 1.7 | 1.7 to 500 | < 1.7 | 10
COc1ccc2c(c1)C=C(c1c(C(=O)N3CCOCC3)cnn1C1CCOCC1)Cn1c-2c(C2CCCCC2)c2ccc(C(=O)NS(=O)(=O)C(C)C)cc21 | 1.7 to 500 | 1.7 to 500 |  | 
CCN1C[C@@H]2C[C@H]1CN2C(=O)c1cnn(C2CCOCC2)c1C1=Cc2cc(OC)ccc2-c2c(C3CCCCC3)c3ccc(C(=O)NS(=O)(=O)CC(C)C)cc3n2C1 | 1.7 to 500 | 1.7 to 500 |  | 
